Measured values as given in ChEMBL document CHEMBL1201862, “PubChem BioAssay data set” (2004).
The source made the active and inactive calls.

Legend:
[1] = target: T1, Delta-type opioid receptor (Homo sapiens, UniProt P41143); assay: HTS Image-Based Screen for Agonists of the DOR Receptor. [Related pubchem assays (depositor defined):AID1777, AID1786, AID2133]; type: functional
[2] = target: T2, Type-1 angiotensin II receptor (Homo sapiens, UniProt P30556); assay: antagonism of angiotensin II type 1 receptor – cell-based, uHTS hits, selectivity assay for APJ receptor antagonist project, dose response (AID 463214); type: functional;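 note: antagonist potency against angiotensin II stimulated AT1 response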
T2 sequence (P30556 whole entry): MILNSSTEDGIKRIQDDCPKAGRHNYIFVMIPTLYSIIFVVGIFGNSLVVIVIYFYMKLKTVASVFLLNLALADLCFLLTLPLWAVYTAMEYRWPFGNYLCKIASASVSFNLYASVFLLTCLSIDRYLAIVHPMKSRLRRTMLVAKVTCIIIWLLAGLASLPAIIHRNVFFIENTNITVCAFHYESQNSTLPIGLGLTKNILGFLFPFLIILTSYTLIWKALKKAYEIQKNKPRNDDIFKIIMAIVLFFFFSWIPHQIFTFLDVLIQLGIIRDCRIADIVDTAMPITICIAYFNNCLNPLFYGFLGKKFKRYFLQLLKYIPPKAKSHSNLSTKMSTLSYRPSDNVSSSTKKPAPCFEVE

Beta-galactosidase [3] = target: T3, Beta-galactosidase (Escherichia coli, UniProt Q8VNN2); assay: PubChem AID 485352; type: functional
[4] = Vero E6 cell cytotoxicity, dose response, cytotoxicity control for non-replicating M. tuberculosis project, secondary assay (AID 492998); type: functional, VeroE6; conditions: Vero C1008
INS1 = assay: INS-1E survival protection against cytokine death – cell-based, luminescence, retest, dose response (AID 449756); type: functional; conditions: Rattus norvegicus;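 note: cell death triggered by IL-1 beta plus TNF-alpha plus IFN-gamma mixture; protective hits raise ATP signal compared with cytokine alone wells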
[5] = target: T1, Delta-type opioid receptor; assay: HTS Image-Based Screen for Antagonists of the DOR Receptor. [Related pubchem assays (depositor defined):AID1777, AID1785, AID1786, AID2133]; type: functional
[6] = microbe, parasite or virus in culture; type: functional; conditions: Mycobacterium tuberculosis
[7] = target: T4, Kappa-type opioid receptor (Homo sapiens, UniProt P41145); type: functional
Beta-galactosidase [8] = target: T3, Beta-galactosidase; type: functional
Mu-type opioid receptor = Mu-type opioid receptor (Homo sapiens, UniProt P35372); assay: HTS Image-Based Screen for Agonists of the MOR Receptor. [Related pubchem assays (depositor defined):AID1777, AID1785, AID1786, AID2133]; type: functional;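 note: imaging of beta-arrestin GFP recruitment into spots after receptor activation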
cells = type: functional
[9] = HepG2 cell cytotoxicity, dose response, cytotoxicity control for non-replicating M. tuberculosis project (AID 489018); type: functional; conditions: Mycobacterium tuberculosis
[10] = THP-1 cell cytotoxicity, dose response, cytotoxicity control for non-replicating M. tuberculosis project (AID 489025); type: functional
[11] = target: T4, Kappa-type opioid receptor; type: functional; remark: listed apart in the source
Hexokinase-1 = target: T5, Hexokinase-1 (Homo sapiens, UniProt P19367); assay: HK1 enzyme activation by HKDC1 hits – biochemical, selectivity assay for HKDC1 activator project, dose response (AID 504762); type: functional
T5 sequence (P19367 whole entry): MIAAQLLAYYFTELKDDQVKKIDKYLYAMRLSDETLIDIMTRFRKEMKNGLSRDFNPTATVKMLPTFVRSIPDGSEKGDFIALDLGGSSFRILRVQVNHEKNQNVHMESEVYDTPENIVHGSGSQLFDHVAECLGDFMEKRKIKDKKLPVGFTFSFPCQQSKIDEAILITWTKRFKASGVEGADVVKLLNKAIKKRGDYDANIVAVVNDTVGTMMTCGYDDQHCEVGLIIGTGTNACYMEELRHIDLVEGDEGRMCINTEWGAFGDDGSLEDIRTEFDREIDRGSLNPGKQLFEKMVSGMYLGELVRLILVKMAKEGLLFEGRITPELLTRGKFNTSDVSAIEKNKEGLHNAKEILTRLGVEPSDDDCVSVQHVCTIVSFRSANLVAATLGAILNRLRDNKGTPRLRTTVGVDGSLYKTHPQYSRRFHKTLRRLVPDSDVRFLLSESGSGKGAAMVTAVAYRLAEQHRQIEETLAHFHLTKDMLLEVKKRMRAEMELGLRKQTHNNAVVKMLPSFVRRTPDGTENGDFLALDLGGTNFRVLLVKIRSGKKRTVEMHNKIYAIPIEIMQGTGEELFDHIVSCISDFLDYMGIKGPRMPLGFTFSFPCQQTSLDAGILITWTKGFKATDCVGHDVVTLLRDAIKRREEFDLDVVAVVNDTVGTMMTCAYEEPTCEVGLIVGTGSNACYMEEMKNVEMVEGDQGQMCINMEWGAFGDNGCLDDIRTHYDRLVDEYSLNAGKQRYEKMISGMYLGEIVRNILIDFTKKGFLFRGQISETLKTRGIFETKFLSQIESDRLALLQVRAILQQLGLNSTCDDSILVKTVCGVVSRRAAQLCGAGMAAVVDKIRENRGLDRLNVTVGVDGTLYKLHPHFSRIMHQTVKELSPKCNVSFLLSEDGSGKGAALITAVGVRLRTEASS

Hexokinase HKDC1 = target: T6, Hexokinase HKDC1 (Homo sapiens, UniProt Q2TB90); assay: activation of HKDC1 glucose phosphorylation – biochemical, W721R variant, dose response (AID 504730); type: functional
T6 sequence (Q2TB90 whole entry): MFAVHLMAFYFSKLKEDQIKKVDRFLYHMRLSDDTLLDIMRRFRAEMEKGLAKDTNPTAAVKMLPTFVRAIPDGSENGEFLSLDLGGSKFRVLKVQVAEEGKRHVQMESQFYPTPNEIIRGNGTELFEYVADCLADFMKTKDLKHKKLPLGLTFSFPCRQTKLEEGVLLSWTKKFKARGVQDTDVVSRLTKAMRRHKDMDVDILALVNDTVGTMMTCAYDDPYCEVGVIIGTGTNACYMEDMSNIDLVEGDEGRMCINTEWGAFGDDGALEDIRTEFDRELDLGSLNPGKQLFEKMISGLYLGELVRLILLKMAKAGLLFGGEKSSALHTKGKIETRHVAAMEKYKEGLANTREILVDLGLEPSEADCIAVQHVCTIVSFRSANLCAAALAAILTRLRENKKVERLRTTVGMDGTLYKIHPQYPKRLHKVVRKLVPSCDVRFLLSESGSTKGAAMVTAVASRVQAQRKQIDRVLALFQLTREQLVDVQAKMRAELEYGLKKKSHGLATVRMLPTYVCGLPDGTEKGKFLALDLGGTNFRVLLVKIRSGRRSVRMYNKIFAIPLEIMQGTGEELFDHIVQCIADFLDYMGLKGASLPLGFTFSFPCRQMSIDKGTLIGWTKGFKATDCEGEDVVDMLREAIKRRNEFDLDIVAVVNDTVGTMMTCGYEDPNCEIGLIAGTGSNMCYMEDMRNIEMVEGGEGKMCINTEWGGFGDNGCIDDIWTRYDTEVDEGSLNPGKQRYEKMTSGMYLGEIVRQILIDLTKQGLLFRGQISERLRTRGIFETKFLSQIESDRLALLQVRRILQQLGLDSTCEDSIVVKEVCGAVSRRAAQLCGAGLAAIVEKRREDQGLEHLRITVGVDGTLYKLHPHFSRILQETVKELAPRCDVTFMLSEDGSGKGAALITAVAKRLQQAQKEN

[12] = target: T7, Heat shock factor protein 1 (Mus musculus, UniProt P38532); assay: decrease of HSF1-responsive luciferase luminescence – cell-based, NIH3T3, dose retest, confirmation (AID 2382); type: functional;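 note: NIH3T3 fibroblasts with HSF1-driven luciferase reporter stressed by proteasome inhibitor MG132; luminescence from HSF1-driven luciferase expression after 8 hours of MG132 stress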
T7 sequence (P38532 whole entry): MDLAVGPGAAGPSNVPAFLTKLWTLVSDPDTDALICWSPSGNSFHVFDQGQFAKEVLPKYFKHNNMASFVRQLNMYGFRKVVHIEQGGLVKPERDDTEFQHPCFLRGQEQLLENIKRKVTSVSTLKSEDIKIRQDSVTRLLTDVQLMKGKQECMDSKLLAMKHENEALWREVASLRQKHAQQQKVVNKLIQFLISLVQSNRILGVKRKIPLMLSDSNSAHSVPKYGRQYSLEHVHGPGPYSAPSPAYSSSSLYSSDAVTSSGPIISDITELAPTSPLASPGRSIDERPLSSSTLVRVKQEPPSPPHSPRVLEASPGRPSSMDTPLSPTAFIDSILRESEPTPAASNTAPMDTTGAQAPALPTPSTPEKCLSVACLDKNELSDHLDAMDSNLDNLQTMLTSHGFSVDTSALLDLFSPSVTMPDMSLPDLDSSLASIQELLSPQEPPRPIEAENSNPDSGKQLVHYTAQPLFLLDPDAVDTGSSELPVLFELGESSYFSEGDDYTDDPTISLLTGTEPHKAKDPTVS

[13] = target: T8, Tyrosine-protein phosphatase non-receptor type 22 (Homo sapiens, UniProt Q9Y2R2); type: functional
T8 sequence (Q9Y2R2 whole entry): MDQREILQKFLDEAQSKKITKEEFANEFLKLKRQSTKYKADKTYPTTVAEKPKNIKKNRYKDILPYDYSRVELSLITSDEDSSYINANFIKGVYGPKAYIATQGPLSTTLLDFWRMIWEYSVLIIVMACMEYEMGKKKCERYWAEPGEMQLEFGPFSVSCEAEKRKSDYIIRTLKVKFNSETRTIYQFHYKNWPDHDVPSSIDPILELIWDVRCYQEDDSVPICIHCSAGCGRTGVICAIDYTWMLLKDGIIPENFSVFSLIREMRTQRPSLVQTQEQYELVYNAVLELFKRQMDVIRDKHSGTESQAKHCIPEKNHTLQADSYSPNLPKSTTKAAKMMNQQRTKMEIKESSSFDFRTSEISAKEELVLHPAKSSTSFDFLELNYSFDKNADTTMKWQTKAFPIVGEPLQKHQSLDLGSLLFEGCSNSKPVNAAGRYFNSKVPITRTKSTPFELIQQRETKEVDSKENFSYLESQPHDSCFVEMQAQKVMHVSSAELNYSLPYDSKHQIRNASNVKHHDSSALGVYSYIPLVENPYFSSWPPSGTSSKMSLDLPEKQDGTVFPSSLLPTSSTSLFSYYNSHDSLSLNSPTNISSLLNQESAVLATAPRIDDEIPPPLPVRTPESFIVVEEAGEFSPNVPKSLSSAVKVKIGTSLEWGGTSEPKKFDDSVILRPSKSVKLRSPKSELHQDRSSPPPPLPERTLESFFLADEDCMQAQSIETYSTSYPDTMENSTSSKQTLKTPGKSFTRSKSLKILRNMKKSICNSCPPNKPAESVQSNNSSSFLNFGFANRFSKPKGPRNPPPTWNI

[14] = target: T9, Tyrosine-protein phosphatase non-receptor type 7 (Homo sapiens, UniProt P35236); type: functional
T9 sequence (P35236 whole entry): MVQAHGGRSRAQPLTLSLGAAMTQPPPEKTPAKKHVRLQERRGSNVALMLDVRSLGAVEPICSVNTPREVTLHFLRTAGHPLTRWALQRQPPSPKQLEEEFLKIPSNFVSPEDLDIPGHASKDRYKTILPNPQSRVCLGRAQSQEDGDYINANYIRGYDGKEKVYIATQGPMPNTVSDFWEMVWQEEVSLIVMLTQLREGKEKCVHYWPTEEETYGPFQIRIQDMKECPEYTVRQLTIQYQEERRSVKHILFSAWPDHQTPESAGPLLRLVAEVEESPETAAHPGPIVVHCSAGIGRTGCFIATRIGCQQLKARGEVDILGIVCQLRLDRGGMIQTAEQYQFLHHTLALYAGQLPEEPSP

[15] = target: T8, Tyrosine-protein phosphatase non-receptor type 22; type: functional; remark: listed apart in the source
[16] = alpha-synuclein stem-loop luciferase translation blockers – H4 neuroglioma cells, luminescence, confirmation (AID 1988); type: functional, cell-based
[17] = test system: Streptococcus sp. 'group A'; assay: Streptococcus pyogenes SK(-)GAS viability under kanamycin – luminescence, BacTiterGlo, confirmation, counter-screen for streptokinase expression inhibitor project, dose response (AID 1900); type: functional, organism-based
[18] = Luminescence Cell-Based Dose Response HTS to Identify Inhibitors of 5'UTR Stem-Loop Driven Prion Protein mRNA Translation in H4 Neuroglioblastoma Cells. [Related pubchem assays: 1827 (Project Summary), 1813 (Primary HTS)]; type: functional
[19] = luciferase reporter signal suppression in cells – H4 neuroglioma cells, luminescence, dose response (AID 1990); type: functional, cell-based
[20] = A Cell Based Secondary Assay To Explore Cytotoxicity of Compounds that Sensitize Mycobacterium Tuberculosis to Beta-Lactam Antibiotics.; type: functional
Streptococcus = assay: GAS UMAA2166 growth inhibition – luminescence, BacTiterGlo, counter-screen for streptokinase expression inhibitor project, dose response (AID 1915); type: functional, organism-based;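 note: potency for reduction of bacterial viability or growth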

T3 sequence (Q8VNN2 whole entry): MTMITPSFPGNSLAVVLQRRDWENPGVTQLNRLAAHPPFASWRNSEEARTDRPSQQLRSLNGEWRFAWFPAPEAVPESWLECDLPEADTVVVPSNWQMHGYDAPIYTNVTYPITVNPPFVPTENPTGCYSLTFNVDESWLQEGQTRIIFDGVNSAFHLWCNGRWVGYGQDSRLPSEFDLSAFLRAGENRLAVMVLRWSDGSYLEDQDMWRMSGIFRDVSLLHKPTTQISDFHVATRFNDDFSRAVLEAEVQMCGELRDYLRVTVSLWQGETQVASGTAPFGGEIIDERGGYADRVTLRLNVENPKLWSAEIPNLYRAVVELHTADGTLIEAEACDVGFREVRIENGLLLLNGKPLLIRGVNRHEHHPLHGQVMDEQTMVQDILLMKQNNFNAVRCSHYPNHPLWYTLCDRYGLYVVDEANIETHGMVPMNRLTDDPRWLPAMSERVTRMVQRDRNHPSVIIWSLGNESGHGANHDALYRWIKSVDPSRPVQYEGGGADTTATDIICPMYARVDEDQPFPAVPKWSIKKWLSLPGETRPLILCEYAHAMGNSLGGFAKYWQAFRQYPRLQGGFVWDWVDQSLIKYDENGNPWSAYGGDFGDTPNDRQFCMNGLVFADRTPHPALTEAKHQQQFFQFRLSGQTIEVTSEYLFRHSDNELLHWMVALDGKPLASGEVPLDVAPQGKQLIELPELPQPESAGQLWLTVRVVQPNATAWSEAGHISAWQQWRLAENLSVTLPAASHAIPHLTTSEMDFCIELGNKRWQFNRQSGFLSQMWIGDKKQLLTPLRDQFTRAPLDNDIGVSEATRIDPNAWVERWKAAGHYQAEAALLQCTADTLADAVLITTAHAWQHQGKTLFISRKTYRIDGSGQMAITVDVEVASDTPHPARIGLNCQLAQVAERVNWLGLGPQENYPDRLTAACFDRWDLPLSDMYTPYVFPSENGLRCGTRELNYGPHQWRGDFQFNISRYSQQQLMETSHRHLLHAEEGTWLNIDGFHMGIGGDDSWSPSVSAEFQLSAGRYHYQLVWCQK
T1 sequence (P41143 whole entry): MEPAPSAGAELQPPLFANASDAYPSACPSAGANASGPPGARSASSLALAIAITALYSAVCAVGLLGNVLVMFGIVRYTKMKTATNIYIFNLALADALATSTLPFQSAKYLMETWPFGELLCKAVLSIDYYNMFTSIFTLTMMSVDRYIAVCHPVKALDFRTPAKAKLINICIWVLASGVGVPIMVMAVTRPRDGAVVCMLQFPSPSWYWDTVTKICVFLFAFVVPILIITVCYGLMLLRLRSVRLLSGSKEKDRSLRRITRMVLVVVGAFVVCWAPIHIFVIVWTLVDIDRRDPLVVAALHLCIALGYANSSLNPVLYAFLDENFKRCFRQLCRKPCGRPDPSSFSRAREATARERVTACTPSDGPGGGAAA
T4 sequence (P41145 whole entry): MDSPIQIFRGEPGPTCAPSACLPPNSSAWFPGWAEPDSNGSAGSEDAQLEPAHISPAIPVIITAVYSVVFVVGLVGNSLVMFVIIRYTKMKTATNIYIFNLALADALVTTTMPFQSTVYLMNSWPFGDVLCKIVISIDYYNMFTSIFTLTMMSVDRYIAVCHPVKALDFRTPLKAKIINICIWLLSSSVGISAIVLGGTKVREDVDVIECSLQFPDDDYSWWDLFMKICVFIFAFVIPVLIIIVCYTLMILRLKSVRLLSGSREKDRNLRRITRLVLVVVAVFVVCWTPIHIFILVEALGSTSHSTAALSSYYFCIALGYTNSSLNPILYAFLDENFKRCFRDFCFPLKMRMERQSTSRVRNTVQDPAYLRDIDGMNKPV
Chain of Mu-type opioid receptor (P35372 whole entry): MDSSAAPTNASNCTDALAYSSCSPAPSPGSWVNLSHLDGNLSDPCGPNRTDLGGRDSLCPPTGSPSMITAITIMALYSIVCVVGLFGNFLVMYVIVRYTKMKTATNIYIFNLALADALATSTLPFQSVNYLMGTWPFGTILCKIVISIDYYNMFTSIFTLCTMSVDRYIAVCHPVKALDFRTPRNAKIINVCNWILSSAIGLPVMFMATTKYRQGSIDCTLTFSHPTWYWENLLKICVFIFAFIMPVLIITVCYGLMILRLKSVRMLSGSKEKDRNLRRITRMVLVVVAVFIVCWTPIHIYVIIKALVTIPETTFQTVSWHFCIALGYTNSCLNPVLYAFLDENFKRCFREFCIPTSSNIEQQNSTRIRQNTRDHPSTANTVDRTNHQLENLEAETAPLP

With `O=C(NNC(=O)C12CC3CC(CC(C3)C1)C2)c1ccccn1` the EC50 [1] was > 32 µM (inactive), the IC50 [2] was 11.2 µM (active) and the EC50 (Beta-galactosidase [3]) was > 40 µM (inactive). For the same compound, the CC50 [4] was 8.61 µM (active), the AC50 (INS1) was 3.14 µM (active) and the IC50 [5] was > 32 µM (inactive). For the same compound, the CC50 [6] was 16.7 µM (active), the IC50 [7] was greater than 32 µM and the EC50 (Beta-galactosidase [8]) was > 31.5 µM (inactive). The EC50 (Mu-type opioid receptor) was > 32 µM (inactive), the IC50 (cells) was 9.85 µM (active) and the CC50 [9] was > 20 µM (active). The CC50 [10] was 5.31 µM (active) and the IC50 [11] was 15 µM (active).

In the case of `CCc1ccc(C2=NN=C(Nc3cccc(S(=O)(=O)N(C)C)c3)SC2)cc1`, the EC50 (Hexokinase-1) is reported as 8.26 µM (active), the AC50 (INS1) is reported as 7.54 µM (active) and the EC50 (Hexokinase HKDC1) is reported as 10.3 µM (active). The EC50 [12] was > 195 µM (not active).

With `Cc1ccc(C(=O)O)cc1NC(=O)c1ccc2c(c1)C(=O)N(c1ccc([N+](=O)[O-])cc1)C2=O` the IC50 [13] was 21.6 µM (active), the IC50 [14] was 10.9 µM (active) and the IC50 [15] was 15 µM (active).

In the case of `CCCCN(CCCC)C(=S)N/N=C/c1c(C)nn(-c2ccccc2)c1O`, the EC50 [16] is reported as > 120 µM (not active), the IC50 [2] is reported as 13.3 µM (active) and the EC50 (Beta-galactosidase [3]) is reported as > 40 µM (inactive). For the same compound, the EC50 (Hexokinase-1) was > 80 µM (inactive), the EC50 [17] was 0.221 µM (active) and the EC50 (Hexokinase HKDC1) was 28.7 µM (inactive). The EC50 [18] was 4.19 µM (active), the EC50 [19] was 13.3 µM (active) and the CC50 [20] was 5.22 µM (active). The EC50 (Streptococcus) was 11.4 µM (active).
